Source: patent US4011390A, “Semi-synthetic aminocyclitol aminoglycoside antibiotics and methods for the preparation thereof” (Schering-Plough Corporation, priority 1974, dated 1977)
Values after ≈ are worked out from the molar mass of the structure shown. Where two headings read alike, the source gives them in different places.

Legend:
[1] = tested on: Pseudomonas aeruginosa; experiment: Protection Tests in Mice; format: in vivo
From the text: (§1) In vivo Activity of the Mutamicin 1 and Sisomicin
(§2) Protection Tests in Mice

[2] = tested on: Staphylococcus; experiment: Protection Tests in Mice; format: in vivo; conditions: Staphylococcus Gray, read-out: PD50
From the text: as §1, §2

[3] = tested on: Escherichia coli; experiment: Protection Tests in Mice; format: in vivo
From the text: as §1, §2

[4] = tested on: Streptococcus pyogenes; experiment: MIC in Mueller-Hinton Broth pH 7.2; format: cell-based
From the text: (§3) In vitro Activity of the Mutamicins and Sisomicin
(§4) MIC's in Mueller-Hinton Broth pH 7.2

[5] = tested on: Pseudomonas aeruginosa; experiment: MIC in Mueller-Hinton Broth pH 7.2; format: cell-based
From the text: as §3, §4

[6] = tested on: Klebsiella pneumoniae; experiment: MIC in Mueller-Hinton Broth pH 7.2; format: cell-based
From the text: as §3, §4

[7] = tested on: Bacillus subtilis; experiment: MIC in Mueller-Hinton Broth pH 7.2; format: cell-based; conditions: ATCC6633, strain ATCC 6633
From the text: as §3, §4

[8] = tested on: Trichophyton rubrum; experiment: MIC in Mueller-Hinton Broth pH 7.2; format: cell-based; conditions: Mueller-Hinton Broth pH 7.2, read-out: MIC
From the text: as §3, §4

[9] = tested on: Proteus rettgeri; experiment: MIC in Mueller-Hinton Broth pH 7.2; format: cell-based; conditions: Providencia rettgeri; Mueller-Hinton Broth pH 7.2; read-out: MIC
From the text: as §3, §4

[10] = tested on: Salmonella typhimurium; experiment: MIC in Mueller-Hinton Broth pH 7.2; format: cell-based; conditions: Salmonella enterica, strain B
From the text: as §3, §4

[11] = tested on: Staphylococcus aureus; experiment: MIC in Mueller-Hinton Broth pH 7.2; format: cell-based
From the text: as §3, §4

[12] = tested on: Aspergillus niger; experiment: MIC in Mueller-Hinton Broth pH 7.2; format: cell-based; conditions: Mueller-Hinton Broth pH 7.2, read-out: MIC
From the text: as §3, §4

[13] = tested on: Serratia; experiment: MIC in Mueller-Hinton Broth pH 7.2; format: cell-based; conditions: strain 127, Mueller-Hinton Broth pH 7.2, read-out: MIC
From the text: as §3, §4

[14] = tested on: Candida albicans; experiment: MIC in Mueller-Hinton Broth pH 7.2; format: cell-based; conditions: Mueller-Hinton Broth pH 7.2, read-out: MIC
From the text: as §3, §4

[15] = tested on: Escherichia coli; experiment: MIC in Mueller-Hinton Broth pH 7.2; format: cell-based
From the text: as §3, §4

[16] = tested on: Providence; experiment: MIC in Mueller-Hinton Broth pH 7.2; format: cell-based; conditions: strain (Genta. R.) 164
From the text: as §3, §4

[17] = tested on: Streptococcus pyogenes; experiment: Disc test, Bauer-Kirby technique with 10 Mcg. discs; format: cell-based; conditions: Streptococcus pyogenes
From the text: (§5) Disc Test Results (Replicate Tests) With The Mutamicins, Sisomicin and
(§6) Bauer-Kirby Technique^1 With 10 Mcg. Discs
(§7) ^1 Bauer, Kirby, Sherris and Turck, American Journal of Clinical

[18] = tested on: Pseudomonas aeruginosa; experiment: as above; format: cell-based; conditions: Pseudomonas aeruginosa
From the text: as §5, §6, §7

[19] = tested on: Klebsiella pneumoniae; experiment: as above; format: cell-based; conditions: Klebsiella pneumoniae
From the text: as §5, §6, §7

[20] = tested on: Bacillus subtilis; experiment: as above; format: cell-based; conditions: Bacillus subtilis, ATCC6633, strain ATCC 6633
From the text: as §5, §6, §7

[21] = tested on: Staphylococcus aureus; experiment: as above; format: cell-based; conditions: Staphylococcus aureus
From the text: as §5, §6, §7

[22] = tested on: Providence 164; experiment: as above; format: cell-based; conditions: strain 164
From the text: as §5, §6, §7

[23] = tested on: Escherichia coli; experiment: as above; format: cell-based; conditions: Escherichia coli, read-out: Zone Size
From the text: as §5, §6, §7

[24] = Acute Toxicity; conditions: mouse, in vivo

CN[C@@H]1[C@@H](O)[C@@H](O[C@H]2[C@H](N)[C@@H](O)[C@H](N)[C@@H](O[C@H]3OC(CN)=CC[C@H]3N)[C@@H]2O)OC[C@]1(C)O [Mutamicin 1]
ED50 ([1]; Pseudomonas aeruginosa 2552, read-out: PD50): 15.3 mg/kg | ED50 ([1]; Pseudomonas aeruginosa 2557, read-out: PD50): 17.1 mg/kg | ED50 ([1]; sc, Pseudomonas aeruginosa Sc., read-out: PD50): 2.5 mg/kg | ED50 [2]: 6 mg/kg | ED50 ([3]; Escherichia coli 6922, read-out: PD50): 2.5 mg/kg | ED50 ([3]; Escherichia coli Sc., read-out: PD50): 5 mg/kg | MIC ([4]; pH 7.2, strain 27): 7.5 µg/mL (≈ 16.2 µM) | MIC ([4]; pH 7.2, strain Alvarez): 7.5 µg/mL (≈ 16.2 µM) | MIC ([4]; pH 7.2, strain C): 3 µg/mL (≈ 6.47 µM) | MIC ([4]; pH 7.2, strain Cruz): 3 µg/mL (≈ 6.47 µM) | MIC ([4]; pH 7.2, strain Karipeds): 3 µg/mL (≈ 6.47 µM) | MIC ([4]; pH 7.2, strain Labay): 7.5 µg/mL (≈ 16.2 µM) | MIC ([5]; pH 7.2): > 25 µg/mL | MIC ([5]; pH 7.2, strain 762, Mueller-Hinton Broth pH 7.2, read-out: MIC): 3 µg/mL (≈ 6.47 µM) | MIC ([5]; pH 7.2, strain 1262, Mueller-Hinton Broth pH 7.2, read-out: MIC): 3 µg/mL (≈ 6.47 µM) | MIC ([5]; pH 7.2, strain 1395, Mueller-Hinton Broth pH 7.2, read-out: MIC): 3 µg/mL (≈ 6.47 µM) | MIC ([5]; pH 7.2, strain D-2, Mueller-Hinton Broth pH 7.2, read-out: MIC): 0.8 µg/mL (≈ 1.73 µM) | MIC ([5]; pH 7.2, strain Genta. acetyl Capetown 18, Mueller-Hinton Broth pH 7.2, read-out: MIC): 7.5 µg/mL (≈ 16.2 µM) | MIC ([5]; pH 7.2, strain Genta. acetyl Stone 130, Mueller-Hinton Broth pH 7.2, read-out: MIC): 17.5 µg/mL (≈ 37.8 µM) | MIC ([5]; pH 7.2, strain NRRL B3223, Mueller-Hinton Broth pH 7.2, read-out: MIC): 0.3 µg/mL (≈ 0.647 µM) | MIC ([5]; pH 7.2, strain Stone 20, Mueller-Hinton Broth pH 7.2, read-out: MIC): 3 µg/mL (≈ 6.47 µM) | MIC ([5]; pH 7.2, strain Stone 39, Mueller-Hinton Broth pH 7.2, read-out: MIC): 3 µg/mL (≈ 6.47 µM) | MIC ([5]; pH 7.2, strain Stone 138, Mueller-Hinton Broth pH 7.2, read-out: MIC): 17.5 µg/mL (≈ 37.8 µM) | MIC ([6]; pH 7.2, strain Ad 18): 0.3 µg/mL (≈ 0.647 µM) | MIC ([6]; pH 7.2, strain Genta. adenyl 121): 3 µg/mL (≈ 6.47 µM) | MIC ([6]; pH 7.2, strain Genta. adenyl 3020): 0.3 µg/mL (≈ 0.647 µM) | MIC ([6]; pH 7.2, strain Genta. adenyl 3694): 0.3 µg/mL (≈ 0.647 µM) | MIC ([6]; pH 7.2, strain Kana. phos. Ad 22): 0.3 µg/mL (≈ 0.647 µM) | MIC [7]: 0.03 µg/mL (≈ 0.0647 µM) | MIC [8]: > 10 µg/mL | MIC [9]: 3 µg/mL (≈ 6.47 µM) | MIC [10]: 3 µg/mL (≈ 6.47 µM) | MIC ([11]; ATCC6538P, pH 7.2, strain ATCC 6538P): 0.3 µg/mL (≈ 0.647 µM) | MIC ([11]; pH 7.2, strain 59N): 0.3 µg/mL (≈ 0.647 µM) | MIC ([11]; pH 7.2, strain 1118): 3 µg/mL (≈ 6.47 µM) | MIC ([11]; pH 7.2, strain Grey): 3 µg/mL (≈ 6.47 µM) | MIC ([11]; pH 7.2, strain Wood): 0.08 µg/mL (≈ 0.173 µM) | MIC ([11]; pH 7.2, strain Ziegler): 0.08 µg/mL (≈ 0.173 µM) | MIC [12]: > 10 µg/mL | MIC [13]: 0.8 µg/mL (≈ 1.73 µM) | MIC [14]: > 25 µg/mL | MIC ([15]; ATCC10536, pH 7.2, strain ATCC 10536): 0.3 µg/mL (≈ 0.647 µM) | MIC ([15]; pH 7.2, strain Baker 2): 3 µg/mL (≈ 6.47 µM) | MIC ([15]; pH 7.2, strain Fl4-Bk): 3 µg/mL (≈ 6.47 µM) | MIC ([15]; pH 7.2, strain Genta. adenyl LA290-R55): 3 µg/mL (≈ 6.47 µM) | MIC ([15]; pH 7.2, strain Genta. adenyl W677/R55): 0.8 µg/mL (≈ 1.73 µM) | MIC ([15]; pH 7.2, strain Kana. phosphor. 589): 3 µg/mL (≈ 6.47 µM) | MIC ([15]; pH 7.2, strain Kana. phosphor. C-13): 3 µg/mL (≈ 6.47 µM) | MIC ([15]; pH 7.2, strain Tobra. R 4195): 3 µg/mL (≈ 6.47 µM) | MIC [16]: > 25 µg/mL | zone of inhibition at 10 µg/disc ([17]; strain B-Cruz): 17 mm | zone of inhibition at 10 µg/disc ([17]; strain C): 13 mm | zone of inhibition at 10 µg/disc ([18]; strain Capetown 18): 19 mm | zone of inhibition at 10 µg/disc ([18]; strain D-2): 21 mm | zone of inhibition at 10 µg/disc ([18]; strain St. Michael 413): 27 mm | zone of inhibition at 10 µg/disc ([18]; strain St. Michael 762): 24 mm | zone of inhibition at 10 µg/disc ([18]; strain St. Michael 1262): 18 mm | zone of inhibition at 10 µg/disc ([18]; strain St. Michael 1395): 29 mm | zone of inhibition at 10 µg/disc ([18]; strain Stone 20): 31 mm | zone of inhibition at 10 µg/disc ([18]; strain Stone 39): 29 mm | zone of inhibition at 10 µg/disc ([18]; strain Stone 130): 14 mm | zone of inhibition at 10 µg/disc ([18]; strain Stone 138): 15 mm | zone of inhibition at 10 µg/disc ([19]; strain Ad 17): 24 mm | zone of inhibition at 10 µg/disc ([19]; strain Ad 18): 26 mm | zone of inhibition at 10 µg/disc ([19]; strain Georgetown 3020): 26 mm | zone of inhibition at 10 µg/disc ([19]; strain Georgetown 3694): 26 mm | zone of inhibition at 10 µg/disc [20]: 31 mm | zone of inhibition at 10 µg/disc ([21]; ATCC6538P, strain ATCC 6538P): 26 mm | zone of inhibition at 10 µg/disc ([21]; strain 59N): 26 mm | zone of inhibition at 10 µg/disc ([21]; strain Wood): 28 mm | zone of inhibition at 10 µg/disc ([21]; strain Ziegler): 25 mm | zone of inhibition at 10 µg/disc [22]: 15 mm | zone of inhibition at 10 µg/disc ([23]; ATCC10536, strain ATCC 10536, 10 Mcg. discs): 31 mm | zone of inhibition at 10 µg/disc [23]: 11 mm | zone of inhibition at 10 µg/disc ([23]; strain 589, 10 Mcg. discs): 29 mm | zone of inhibition at 10 µg/disc ([23]; strain JR90, 10 Mcg. discs): 0 mm | zone of inhibition at 10 µg/disc ([23]; strain LA290/R55, 10 Mcg. discs): 29 mm | zone of inhibition at 10 µg/disc ([23]; strain Swidinsky 4195, 10 Mcg. discs): 28 mm | zone of inhibition at 10 µg/disc ([23]; strain W677/R55, 10 Mcg. discs): 30 mm | LD50 ([24]; ip): > 700 mg/kg | LD50 ([24]; iv): 110 mg/kg
